# According to US5314880A, “Benzimidazole derivatives” (British Bio-technology Limited, priority 1989, dated 1994):
# Target: T1, PAF receptor (human platelet plasma membrane) (Homo sapiens, UniProt P25105)
# T1 construct: Platelet concentrates were obtained from a hospital blood bank; from tissue; host or cells: human platelets (hospital blood bank concentrates), lysed platelet membranes
# Experiment: Inhibition of ^3 H-PAF receptor binding to human platelet plasma membrane
# Conditions: ^3 H-PAF 0.5 nM, 0° C., 1 hour
# Experimental: Compounds of general formula I inhibit PAF induced functions in both the cellular and tissue levels by changing the PAF binding to its specific receptor site. The ability of compounds of general formula I to inhibit platelet aggregation in human platelet-rich plasma, and to inhibit the binding of PAF to its specific receptor binding site on human platelet plasma membranes was measured in the assay described in the pharmacology example.
# The inhibition of ^3 H-PAF binding to human platelet plasma membrane by compounds of general formula I was determined by isotopic labelling and filtration techniques. Platelet concentrates were obtained from a hospital blood bank. These platelet concentrates (500-2500 ml.) were centrifuged at 800 rpm for 10 minutes in a SORVALL RC3B centrifuge to remove the red blood cells present. (The word SORVALL is a trade mark.) The supernatant was subsequently centrifuged at 3,000 rpm in a SORVALL RC3B centrifuge to pellet the platelets present. The platelet rich pellets were resuspended in a minimum volume of buffer (150 Mm NaCl, 10 mM Tris, 2 mM EDTA, pH 7.5) and layered onto Ficoll-Paque gradients, 9 ml platelet concentrate to 2 ml Ficoll, and centrifuged at 1,900 rpm for 15 minutes in a SORVALL RT6000 centrifuge. This step removes the residual red blood cells and other nonspecific material such as lymphocytes from the preparation. The platelets which form a band between the plasma and the Ficoll were removed, resuspended in the above buffer and centrifuged at 3,000 rpm for 10 minutes in a SORVALL RT6000 centrifuge. The pelleted platelets were resuspended in buffer (10 mM Tris, 5 mM MgCl2, 2 mM EDTA, pH 7.0), snap-freezed in liquid N2 and allowed to thaw slowly at room temperature in order to lyse the platelets. The latter step was repeated at least 3 times to ensure proper lysis. The lysed platelets were centrifuged at 3,000 rpm for 10 minutes in a SORVALL RT6000 centrifuge and resuspended in buffer. The latter step was reseated twice in order to remove any cytoplasmic proteins which may hydrolyse the platelet activating factor (PAF) receptor. The prepared platelet membranes may be stored at -70° C. After thawing the prepared membranes were centrifuged in a SORVALL RT6000 at 3,000 rpm for 10 minutes and resuspended in assay buffer.
# The assay was conducted by preparing a series of a Tris-buffered solutions of the selected antagonist of predetermined concentrations. Each of these solutions contained ^3 H-PAF (0.5 nM; 1-O-(^3 H]octadecyl-2-acetyl-sn-glycero-3-phosphoryl choline with a specific activity of 132 Ci/mmol), […], a known amount of the test antagonist, and a sufficient amount of Tris-buffer solution (10 mM Tris, 5 mM MgCl2, pH 7.0, 0.25% BSA) to make the final volume 1 ml. Incubation was initiated by the addition of 100 μg of the isolated membrane fraction to each of the above solutions at 0° C. Two control samples, one which ([…]) contained all the ingredients described above except the antagonist and the other (C2) contains C1 plus a 1000-fold excess of unlabelled PAF, were also prepared and incubated simultaneously with the test samples. After 1 hour incubation, each solution was filtered rapidly under vacuo through a WHATMAN GF/C glass fiber falter in order to separate unbound PAF from bound PAF. (The word WHATMAN is a trade mark.) The residue in each case was rapidly washed 4 times with 5 ml cold (4° C.) Tris-buffer solution. Each washed residue was dried under vacuum on a sampling manifold and placed into vials containing 20 ml of OPTIPHASE MP scintillation fluid and the radioactivity counted in a liquid scintillation counter. (The word OPTIPHASE is a trade mark.) Defining the counts for total binding with antagonist from a test sample as "TBA"; the counts for total binding from the control sample C1 as "TB"; and the counts for nonspecific binding from the control sample C2 as "NSB", the percent inhibition of each test antagonist can be determined by the following equation. […]
# T1 sequence (P25105 whole entry): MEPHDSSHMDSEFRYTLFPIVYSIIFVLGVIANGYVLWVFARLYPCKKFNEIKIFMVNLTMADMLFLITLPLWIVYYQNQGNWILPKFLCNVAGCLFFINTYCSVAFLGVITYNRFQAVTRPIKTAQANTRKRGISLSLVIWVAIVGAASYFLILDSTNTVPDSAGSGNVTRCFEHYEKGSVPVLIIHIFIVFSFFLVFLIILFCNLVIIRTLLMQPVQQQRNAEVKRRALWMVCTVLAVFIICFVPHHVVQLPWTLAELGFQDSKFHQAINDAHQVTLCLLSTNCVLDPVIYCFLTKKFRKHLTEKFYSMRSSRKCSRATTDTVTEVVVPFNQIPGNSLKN
smiles,measurement,value
"Cc1nc2ccccc2n1Cc1ccc(S(=O)(=O)NCc2ccccc2Cl)cc1 [Example 80, N-2-Chlorobenzyl 4-(1H-2-methylbenzimidazylmethyl) benzenesulphonamide]",IC50,900 nM
"CCN(C1CCCCC1)S(=O)(=O)c1ccc(Cn2c(C)nc3ccccc32)cc1 [Example 49, N-Cyclohexyl-N-ethyl 4-(1H-2-(2-methyl)benzimidazylmethyl) benzenesulphonamide]",IC50,500 nM
"CCN(C(=O)c1ccc(Cn2c(C)nc3ccccc32)cc1)C1CCCCC1 [Example 21, N-Cyclohexyl-N-ethyl 4-(1H-2-methylbenzimidazylmethyl)benzamide]",IC50,500 nM
"Cc1nc2ccccc2n1Cc1ccc(S(=O)(=O)N2CCC[C@H]3CCCC[C@@H]32)cc1 (relative stereo) [Example 92, trans-Decahydroquinolinyl 4-(1H-2-methylbenzimidazylmethyl) benzenesulphonamide]",IC50,700 nM
"Cc1nc2ccccc2n1Cc1ccc(NC(=O)C2CCCCC2)cc1 [Example 58, N-4-(1H-2-Methylbenzimidazylmethyl)benzyl cyclohexylamide]",IC50,2000 nM
"CSC(c1ccc(C(=O)N(C)C2CCCCC2)cc1)n1cnc2ccccc21 (stereo not drawn) [Example 63, N-Cyclohexyl-N-methyl 4-(1H-benzimidazylthiomethylmethyl) benzamide]",IC50,500 nM
"Cc1nc2ccccc2n1Cc1ccc(C(=O)N(C2CCCCC2)C2CCCCC2)cc1 [Example 22, N,N-Dicyclohexyl 4-(1H-2-methylbenzimidazylmethyl)benzamide]",IC50,650 nM
"CSc1nc2ccccc2n1Cc1ccc(C(=O)N(C)C2CCCCC2)cc1 [Example 26, N-Cyclohexyl-N-methyl 4-(1H-2-thiomethylbenzimidazylmethyl) benzamide]",IC50,3000 nM
"Cc1nc2ccccc2n1Cc1ccc(S(=O)(=O)N(C)C2CCCCC2)cc1 [Example 41, N-Cyclohexyl-N-methyl 4-(1H-2-methylbenzimidazylmethyl) benzenesulphonamide]",IC50,300 nM
"Cc1nc2ccccc2n1Cc1ccc(S(=O)(=O)N2CCCCC2)cc1 [Example 50, Piperidinyl 4-(1H-2-methylbenzimidazylmethyl)benzenesulphonamide]",IC50,2000 nM
Cc1nc2ccccc2n1Cc1ccc(N(C)P(=O)(c2ccccc2)c2ccccc2)cc1 [Example 59],IC50,500 nM
"Cc1nc2cc([N+](=O)[O-])ccc2n1Cc1ccc(S(=O)(=O)N(C)C2CCCCC2)cc1 [Example 44, N-Cyclohexyl-N-methyl 4-(1H-2-methyl-5-nitrobenzimidazylmethyl) benzenesulphonamide]",IC50,5000 nM
